These results are taken from the METLIN SMRT retention time set (Domingo-Almenara et al. 2019).

This data set is described as follows: gradient 5% acetonitrile 3 min, to 50% in 2 min, to 85% in 15 min, held 3 min, 100 µL/min. Conditions: column: Zorbax Extend-C18 2.1 x 50 mm; eluents: water / acetonitrile, 0.1% formic acid. Put shortly: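 Using water and acetonitrile that each contained 0.1% formic acid, mixtures of ~100 pure standards were separated at 100 μL/min on a Zorbax Extend-C18 column (2.1 × 50 mm, 1.8 μm). The HPLC fed a quadrupole time-of-flight mass spectrometer working in positive and negative ionization mode, with dead and dwell volumes of 40 μL and 900 μL. Data were acquired over 3 months. Retention time was read from computationally picked adduct peaks after manual inspection of each.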
`COc1ccc(OC)c(NC(=O)N2CCc3c(c(C(=O)N4CCOCC4)nn3C)C2)c1` had an RP-LC retention time of 648 s. The value for `C=CCN1C(=O)COc2ccc(-c3nc(NC(=O)c4ccco4)sc3C)cc21` was 903 s; that for `O=C(CN1C(=O)C2CCCCN2c2ccc(C(=O)N3CCCC3)cc21)NCCCN1CCCCCC1` (centres undefined) was 639 s. For the molecule `Cc1cccc(N2CCN(C(=O)C3CCc4sc(C(=O)N(C)C)cc4C3)CC2)c1` (centres undefined), the RP-LC retention time came out at 867 s. With `Cc1nc(-c2cccs2)c(CCC(=O)Nc2nccs2)s1` the figure was 752 s; with `Clc1cccc(-c2nnc(Cc3nc(-c4ccccc4)no3)o2)c1`, 1070 s.

As to `O=C(CCc1cn(-c2ccccc2)nc1-c1ccc2c(c1)OCO2)NCCc1ccco1`, the RP-LC retention time was determined as 1100 s. With `COC(=O)c1ccc(NC(=O)CC(C)S(=O)(=O)c2ccc3c(c2)NC(=O)CCS3)cc1` (centres undefined) the figure was 740 s. With `N#Cc1ccc(CN2CC(n3cc(COc4ccc(F)cc4)nn3)C2)cc1` the figure was 678 s; with `CCC1c2nccn2CCCN1C(=O)c1ccc2c(c1)OCO2` (centres undefined), 593 s.

`CCN(Cc1ccccc1)C(=O)c1cn2c(n1)COCC2`: the RP-LC retention time was 640 s.

Regarding `Cc1cc(C)n2nc(CN(C(=O)c3ccco3)c3ccccc3Cl)nc2n1`, the RP-LC retention time worked out at 743 s.

Molecule `O=C(NCC1CCN(c2cc(-c3ccncc3)[nH]n2)CC1)c1ccc2cc[nH]c2c1` returned an RP-LC retention time of 584 s. With `CCN(CC)CCCNC(=O)c1noc2c1CCCCC2` the figure was 632 s. The molecule `CCOc1ccc(-c2csc3c(=O)n(Cc4cccc(Br)c4)cnc23)cc1OCC` yielded an RP-LC retention time of 1210 s.

In turn, `O=C(c1cncnc1)N1CCCn2ccnc2C1C1CCCC1` (centres undefined) yielded an RP-LC retention time of 572 s. The value for `CC1=C(c2cccc(Cl)c2)S(=O)(=O)N=C1N1CCC(NC(=O)C2CCCO2)CC1` (centres undefined) was 771 s; that for `O=C(CSc1cc(NCc2ccc(Cl)cc2)ncn1)Nc1ccc(F)cc1F` was 988 s.

`COc1ccc(-c2nnc(COc3ccc(NC(=O)c4ccc(Cl)nc4)cc3)o2)cc1` came in with an RP-LC retention time of 877 s. The value for `CCCC(=O)Nc1ccc2nc(N3CCN(CC(=O)N4CCCCCC4)CC3)cc(C(=O)O)c2c1` was 587 s; that for `COc1ccccc1N1CCN(c2cc(SCC(=O)Nc3cccc(C#N)c3)ncn2)CC1` was 895 s; that for `Cc1cccc(CNC(=O)C2(C)Cn3cnc(C(=O)NCc4ccccc4)c3C(=O)N2C2CC2)c1` (centres undefined) was 766 s. Molecule `Cc1cc(OCC(=O)Nc2ccc(C#N)cc2)nc(N2CCN(c3ccccc3)CC2)n1` registered an RP-LC retention time of 802 s. With `Cc1ccc(NC(=O)Cn2nc3c(N4CCCCCC4)nccn3c2=O)c(C)c1` the figure was 714 s; with `Cc1ccccc1N1C(=O)CN(S(C)(=O)=O)CC1(C)C(=O)NCc1ccc(Cl)cc1` (centres undefined), 778 s. Take `O=C(NCCc1ccccc1)c1cn2c3c(ccc(Cl)c3c1=O)OCC2`: the RP-LC retention time worked out at 880 s. With `O=C(Nc1ccccc1F)C1CC(=O)N(CCc2c[nH]c3ccc(F)cc23)C1` (centres undefined), the RP-LC retention time is 790 s. The value for `O=C(NCCc1noc(C2CC2)n1)c1ccco1` was 664 s; that for `CCOC(=O)c1c(S(=O)(=O)N2CCC(C(=O)Nc3ccc(C)c(C)c3)CC2)c(C)n(C)c1C` was 841 s; that for `CCOC(=O)c1c(C)[nH]c(C(=O)N2CCC(CC(=O)NCCN3CCOCC3)CC2)c1C` was 575 s. The value for `Cc1cc(NC(=O)Cc2csc(NC(=O)c3ccc(F)cc3)n2)sn1` was 701 s; that for `CC1(CNC(=O)c2cccc(Br)c2)CCOCC1` was 797 s; that for `Cc1ccccc1-c1noc(Cn2ccn(-c3ccccc3)c(=O)c2=O)n1` was 834 s. The value for `Cc1ccc(C)c2sc(N(C)CC(=O)Nc3ccc(-n4cnnn4)cc3)nc12` was 896 s; that for `O=S(=O)(c1ccc2nncn2c1)N(Cc1cc(F)cc(F)c1)c1cc(F)cc(F)c1` was 910 s. With `O=C(NC1CCCC1)c1c2c(nc3ccccc13)CCC2`, the RP-LC retention time amounted to 637 s. Take `Cc1ccc(C)c(N2CCN(c3ccnc(SCC(=O)Nc4cc(F)ccc4F)n3)CC2)c1`: the RP-LC retention time was 1120 s. The value for `Cc1cccc(Nc2nc(CC(=O)N3CCC(C(N)=O)CC3)cs2)n1` was 539 s; that for `Cc1c(Cl)cccc1NC(=O)CCCn1cccc1` was 868 s.

Regarding `CCN1C(=O)C(C)(C(=O)Nc2ccc(C(=O)OC)cc2)Oc2cccnc21` (centres undefined), the RP-LC retention time worked out at 861 s. The value for `CN1C(=O)Cc2cc(C(=O)NC3CCN(Cc4ccccc4)CC3)ccc21` was 892 s; that for `Cn1c(SCC(=O)N2CCCC2)nnc1-c1ccc2c(c1)OCCCO2` was 661 s.

In turn, `COc1ccc(Nc2ncccc2S(N)(=O)=O)cc1Cl` came in with an RP-LC retention time of 801 s.

In the case of `COc1ccc(NC(=O)c2cn3c(n2)CSCC3)c(C)c1`, the RP-LC retention time worked out at 674 s.

The molecule `O=C(NC1CCCC1)NC1CCN(c2nc3cccnc3n(Cc3ccccc3)c2=O)CC1` had an RP-LC retention time of 990 s. With `Cc1ccc([N+](=O)[O-])cc1NC(=O)c1cccc([N+](=O)[O-])c1O` the figure was 913 s. With `O=C(c1ccncc1)N1CCc2c([nH]c3ccccc23)C1c1ccc(Cl)cc1` (centres undefined) the figure was 1000 s; with `CCOC(=O)c1c[nH]c2c(C(=O)OCC)cccc2c1=O`, 735 s; with `CC1CCN(C(=O)c2cn(-c3ccc(S(=O)(=O)N4CCCC(C)C4)cn3)cn2)CC1` (centres undefined), 954 s.

For `CCn1c(=O)c(N2CCC(C(=O)NCCc3ccco3)CC2)nc2cccnc21`, the RP-LC retention time was determined as 828 s.

In the case of `Cc1cc(F)ccc1NC(=O)C(C)C1CCN(C(=O)Nc2ccc(Cl)cc2)CC1` (centres undefined), the RP-LC retention time came to 974 s. With `COc1ccc(CN2CC(=O)N(c3cccc(C)c3)[C@@H]3CS(=O)(=O)C[C@@H]32)cc1` the figure was 788 s; with `O=C1NCC2(CCN(CCc3ccccc3)CC2)O1`, 579 s. `Cc1ccc(NC(=O)Cn2c(=O)n(-c3ccc(F)cc3)c(=O)c3c2cc(C)n3C)cc1F` came in with an RP-LC retention time of 882 s. As for `Cc1csc(-c2cc(S(=O)(=O)NCCN3CCOCC3)cn2CC(=O)N2CCCCC2)n1`, the RP-LC retention time was 654 s. With `COCCN1C(=O)CN(Cc2ccc(C)cc2)C(=O)C1c1cccs1` (centres undefined) the figure was 849 s; with `CCCCNC(=O)C1CCN(S(C)(=O)=O)c2cc(Cl)ccc2O1` (centres undefined), 887 s; with `COCCNC(=O)c1sc2ncn(CC(=O)N3CCCCC3C)c(=O)c2c1C` (centres undefined), 679 s. The value for `Oc1c(C(c2ccccn2)N2CCN(c3ccccc3F)CC2)ccc2cccnc12` (centres undefined) was 567 s. With `COc1ccc(C)cc1NS(=O)(=O)c1ccc(-c2nnc(C3CCC3)o2)o1` the figure was 922 s; with `Cc1cccc(NC(=O)C2CCCN(c3ccc(=O)n(-c4cccc(Cl)c4)n3)C2)c1C` (centres undefined), 960 s. Take `CCCn1nccc1-c1csc(S(=O)(=O)N2CCCC2)c1`: the RP-LC retention time was 912 s. The value for `Cc1cc(C)cc(-c2nnc(Cc3nc(-c4ccc(Br)cc4)no3)o2)c1` was 1270 s; that for `CC(=O)N1CCCc2cc(S(=O)(=O)N3CCC(C(=O)N4CCN(C)CC4)CC3)ccc21` was 624 s; that for `COc1ccccc1-c1noc(C2CCCN2C(=O)NCc2ccco2)n1` (centres undefined) was 761 s. The value for `COc1ccc(C(=O)N2CCc3nc(CNC(=O)C4CCC4)n(C)c3C2)cn1` was 585 s; that for `O=C(Nc1ccccc1)Nc1c(-c2ccccc2)nc2ccccn12` was 636 s; that for `Cc1ccc(N2CCN(C(=O)c3cn(-c4cc(N5CCSCC5)ncn4)cn3)CC2)cc1` was 916 s. The value for `Cc1ccn2cc(-c3ccc(NC(=O)c4cccc([N+](=O)[O-])c4)cc3)nc2n1` was 652 s; that for `CCNS(=O)(=O)c1cccc(-c2nc(-c3ccc(C)cc3)no2)c1` was 1100 s; that for `CCc1ccc(S(=O)(=O)N2C[C@@H](F)C[C@H]2C(=O)N2CCc3ccccc3C2)cc1` was 998 s.

With `CCOc1ccc(CNC(=O)CN2CCN(Cc3ccc(F)cc3)C2=O)cc1OC`, the RP-LC retention time worked out at 751 s. The value for `Cc1ccc(S(=O)(=O)N2CCN(c3ccc(-c4ccc(F)cc4)nn3)CC2)s1` was 870 s. Turning to `COc1ccc(-c2noc(-c3ccc(NCC4CCCO4)nn3)n2)cc1` (centres undefined), the RP-LC retention time is 782 s. The value for `Cc1cc(C)n(CCC(=O)NCC23CCCC=C2NC(=O)CC3)n1` (centres undefined) was 621 s; that for `CCN(CC)C(=O)c1cnc2snc(C)c2c1N1CCC(C(=O)Nc2cc(C)c(Cl)cc2OC)CC1` was 1070 s. The value for `Cn1cnnc1SCC(=O)Nc1ccc(F)cc1` was 603 s; that for `COc1ccc(-c2ncc3c(n2)CCN(C(=O)Nc2ccccc2OC)C3)cc1` was 905 s; that for `O=C(NCC1CCCCC1)C1CCCN(c2ccc(-c3ccccc3)nn2)C1` (centres undefined) was 762 s.
